Source: PMC8300687, “A Fine-Tuned Lipophilicity/Hydrophilicity Ratio Governs Antibacterial Potency and Selectivity of Bifurcated Halogen Bond-Forming NBTIs” (Antibiotics, 2021)
In brackets after ≈: the same amount, converted by molar mass. Like-named read-outs stand apart in the source and are kept apart here.

Assays:
E. coli N43 (CGSC# 5583) = assay: MIC broth microdilution, E. coli N43; format: cell-based; conditions: Escherichia coli
Summary of the method: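 Broth microdilution per CLSI/EUCAST: 0.5 McFarland suspensions diluted in cation-adjusted Mueller Hinton broth with TES to a final 10^5 CFU/mL, mixed with compounds in DMSO, incubated 18–20 h at 35 °C. Mycobacterium in Middelbrook 7H9 + 5% OADC, ≥10 days. MIC read visually as lowest dilution without turbidity.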

E. coli DNA gyrase = target: T1, E. coli DNA gyrase (Escherichia coli, UniProt P0AES4); assay: Gyrase Supercoiling High Throughput Plate assay, E. coli; format: biochemical; conditions: for LE DNA Gyrase E. coli: LE = (1.37/HA) × pIC50
T1 construct: purchased Inspiralis (Norwich, UK)
T1 sequence (P0AES4 whole entry): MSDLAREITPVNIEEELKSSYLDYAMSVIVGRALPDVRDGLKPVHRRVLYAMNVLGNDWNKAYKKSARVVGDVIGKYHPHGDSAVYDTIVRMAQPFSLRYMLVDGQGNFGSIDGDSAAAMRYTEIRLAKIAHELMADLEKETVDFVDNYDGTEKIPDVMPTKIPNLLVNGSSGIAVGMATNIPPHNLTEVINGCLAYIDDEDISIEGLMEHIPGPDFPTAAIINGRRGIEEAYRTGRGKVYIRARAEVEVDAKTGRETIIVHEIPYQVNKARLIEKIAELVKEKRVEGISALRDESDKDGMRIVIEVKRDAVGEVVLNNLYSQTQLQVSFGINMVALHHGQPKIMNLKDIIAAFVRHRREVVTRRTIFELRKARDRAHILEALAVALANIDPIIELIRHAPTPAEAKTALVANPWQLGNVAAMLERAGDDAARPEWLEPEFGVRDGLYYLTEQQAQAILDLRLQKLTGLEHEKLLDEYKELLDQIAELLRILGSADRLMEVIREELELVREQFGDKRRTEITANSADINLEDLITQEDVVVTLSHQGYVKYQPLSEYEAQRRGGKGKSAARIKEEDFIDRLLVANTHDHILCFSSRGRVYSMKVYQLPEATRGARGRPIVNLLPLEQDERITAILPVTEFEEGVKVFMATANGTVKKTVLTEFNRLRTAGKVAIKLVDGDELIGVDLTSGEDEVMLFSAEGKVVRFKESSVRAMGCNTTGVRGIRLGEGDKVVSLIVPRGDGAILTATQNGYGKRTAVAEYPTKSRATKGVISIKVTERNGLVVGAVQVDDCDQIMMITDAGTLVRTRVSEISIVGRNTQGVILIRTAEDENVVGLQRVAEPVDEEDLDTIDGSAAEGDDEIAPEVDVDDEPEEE
Procedure: (§1) A Gyrase Supercoiling High Throughput Plate assay kit, purchased from Inspiralis (Norwich. UK) was used to determine IC50 values of compounds on S. aureus and E. coli. […] Biotinylated oligonucleotide in wash buffer was immobilized onto the wells, and the excess oligonucleotide was washed off with wash buffer and ultrapure water. […] The reactions were stopped by adding the TF buffer (50 mM NaOAc (pH 4.7), 50 mM NaCl, and 50 mM MgCl2) to allow the triplex formation (biotin-oligonucleotide-plasmid) for additional 30 min. Afterward, the unbound plasmid was washed off using TF buffer, and the solution of Promega Diamond dye in T10 buffer (10 mM Tris-HCl (pH 8.0), 1 mM EDTA) was added. […] IC50 value represents the mean of two to four independent measurements.

MRSA (QA-11.2) = assay: MIC broth microdilution, MRSA QA-11.2; format: cell-based, methicillin-resistant S. aureus; conditions: Staphylococcus aureus, 20 h, resistant to cefoxitin, chloramphenicol, clindamycin, linezolid, tetracycline, thiamulin, trimethoprim, read-out: MIC MRSA (QA-11.2)
Procedure: (§2) Antimicrobial testing was carried out by the broth microdilution method in 96-well plate format following the Clinical and Laboratory Standards Institute (CLSI) guidelines and European Committee on Antimicrobial Susceptibility Testing (EUCAST) recommendations. Bacterial suspension of specific bacterial strain equivalent to 0.5 McFarland turbidity standard was diluted with cation-adjusted Mueller Hinton broth with TES (Thermo Fisher Diagnostic, Landsmeer, The Netherlands), to obtain a final inoculum of 10^5 CFU/mL. Compounds dissolved in DMSO and inoculum were mixed together and incubated for 18–20 h at 35 °C. Suspensions of Mycobacterium sp. were prepared into a tube of Middelbrook 7H9 broth supplemented with 5% OADC (Thermo Scientific, Trek Diagnostic Systems, West Sussex, UK) and incubated for at least 10 days. After incubation the minimal inhibitory concentration (MIC) values were determined by visual inspection as the lowest dilution of compounds showing no turbidity. Tetracycline was used as a positive control on every assay plate.

in vitro = conditions: PAMPA
Summary of the method: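 Compounds measured by HPLC (isocratic, compound-specific methods) after 4-h incubation at 37 °C across a three-layer artificial membrane into pH 7.4 PBS acceptor. Permeability derived from donor and acceptor peak areas, using diluted starting donor solution as external standard.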

S. aureus DNA gyrase = target: T2, S. aureus DNA gyrase (Staphylococcus aureus, UniProt P20831); assay: biochemical; format: biochemical; conditions: for LE DNA Gyrase S. aureus: LE = (1.37/HA) × pIC50; for IC50: fluorescence plate supercoiling assay, mean of two to four measurements
T2 construct: purchased Inspiralis (Norwich, UK)
T2 sequence (P20831 whole entry): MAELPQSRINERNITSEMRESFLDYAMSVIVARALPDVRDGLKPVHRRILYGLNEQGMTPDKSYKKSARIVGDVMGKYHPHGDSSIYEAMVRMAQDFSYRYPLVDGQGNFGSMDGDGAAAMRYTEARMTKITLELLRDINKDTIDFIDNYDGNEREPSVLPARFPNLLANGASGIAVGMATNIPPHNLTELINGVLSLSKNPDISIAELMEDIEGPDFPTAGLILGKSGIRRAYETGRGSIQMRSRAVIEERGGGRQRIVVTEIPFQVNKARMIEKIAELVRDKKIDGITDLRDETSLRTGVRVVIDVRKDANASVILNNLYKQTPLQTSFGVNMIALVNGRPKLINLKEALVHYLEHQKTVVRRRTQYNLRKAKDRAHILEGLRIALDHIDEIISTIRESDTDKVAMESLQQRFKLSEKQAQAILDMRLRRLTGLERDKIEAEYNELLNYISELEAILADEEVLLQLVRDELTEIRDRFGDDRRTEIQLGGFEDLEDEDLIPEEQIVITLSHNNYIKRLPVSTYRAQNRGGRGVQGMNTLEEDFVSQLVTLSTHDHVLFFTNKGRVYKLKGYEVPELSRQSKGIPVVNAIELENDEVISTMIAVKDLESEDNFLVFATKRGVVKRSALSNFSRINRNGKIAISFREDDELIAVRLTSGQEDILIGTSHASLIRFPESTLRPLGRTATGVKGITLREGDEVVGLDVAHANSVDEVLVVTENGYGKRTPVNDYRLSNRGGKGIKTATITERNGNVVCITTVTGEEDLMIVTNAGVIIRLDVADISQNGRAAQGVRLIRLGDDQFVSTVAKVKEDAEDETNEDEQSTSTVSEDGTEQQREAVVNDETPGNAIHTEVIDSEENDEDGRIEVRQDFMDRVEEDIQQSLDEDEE
T2 sequence (P0A0K8 whole entry partner): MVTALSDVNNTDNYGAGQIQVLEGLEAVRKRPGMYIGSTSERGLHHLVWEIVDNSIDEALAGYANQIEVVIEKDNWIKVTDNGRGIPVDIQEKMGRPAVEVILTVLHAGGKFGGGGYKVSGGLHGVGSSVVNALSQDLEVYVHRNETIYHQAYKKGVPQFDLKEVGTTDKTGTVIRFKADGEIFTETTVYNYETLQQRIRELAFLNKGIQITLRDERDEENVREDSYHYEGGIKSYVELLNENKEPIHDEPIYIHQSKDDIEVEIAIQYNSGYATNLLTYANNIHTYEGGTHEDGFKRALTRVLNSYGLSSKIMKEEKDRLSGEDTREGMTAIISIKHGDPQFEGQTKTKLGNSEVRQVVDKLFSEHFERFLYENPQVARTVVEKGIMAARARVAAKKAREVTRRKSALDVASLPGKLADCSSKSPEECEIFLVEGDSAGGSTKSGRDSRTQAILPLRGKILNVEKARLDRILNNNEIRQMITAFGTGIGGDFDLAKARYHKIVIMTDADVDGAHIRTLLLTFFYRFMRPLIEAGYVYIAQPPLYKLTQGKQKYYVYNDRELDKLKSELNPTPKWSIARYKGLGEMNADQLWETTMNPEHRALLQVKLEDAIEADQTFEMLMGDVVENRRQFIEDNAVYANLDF
Procedure: as §1

[1] = Equilibrium solubility at pH 6.8; conditions: phosphate buffered saline, 37 °C, pH 6.8, aqueous buffer, thermodynamic from solid
Summary of the method: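 Concentrations in solution were read by compound-specific isocratic HPLC calibrated with 30–90 mg/L external standards, after 5 min homogenization and 24 h shaking at 1200 RPM, 37 °C.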

[2] = tested on: S. alachua RDK 030c (QA-1482/04); assay: MIC broth microdilution, S. alachua; format: cell-based; conditions: Salmonella; read-out: MIC S. alachua RDK 030c (QA-1482/04)
Procedure: as §2

E. coli (QA-11.8) = assay: MIC broth microdilution, E. coli QA-11.8; format: cell-based; conditions: Escherichia coli, 20 h; read-out: MIC E. coli (QA-11.8)
Procedure: as §2

M. avium = assay: MIC, M. avium; format: cell-based; conditions: Mycobacterium avium; read-out: MIC M. avium
Procedure: as §2

MRSA (QA-11.6) = assay: MIC broth microdilution, MRSA QA-11.6; format: cell-based, methicillin-resistant S. aureus; conditions: Staphylococcus aureus, resistant to cefoxitin, gentamicin, sulfamethoxazole, tetracycline, read-out: MIC MRSA (QA-11.6)
Procedure: as §2

HUVEC = assay: Metabolic activity assessment (cytotoxicity), HUVEC; format: cell-based; conditions: Homo sapiens, metabolic activity after 72 h treatment
Procedure: Cells of the HepG2 line (ATCC® HB-8065™) and HUVEC (ATCC® CRL-1730™) were cultured in Dulbecco’s Modified Eagle Medium (DMEM; Sigma-Aldrich, St. Louis, MO, USA) supplemented with 10% heat-deactivated FBS (Gibco, Grand Island, NE, USA), 2 mM L-glutamine, 100 U/mL penicillin, 100 μg/mL streptomycin (all from Sigma-Aldrich, St. Louis, MO, USA) in a humidified chamber at 37 °C and 5% CO2. The experiments were carried out on passages 7–9 for both cell lines. The tested compounds were dissolved in DMSO and further diluted in culture medium to a desired final concentration. Cells were seeded into 96-well plates at 8 × 10^4 cells/mL (100 μL/well) and incubated for 24 h to attach onto the wells. Cells were treated with 1 μM and 50 μM of each compound of interest or corresponding vehicle as control. […] The metabolic activity was assessed after 72 h treatment using the CellTiter 96 Aqueous One Solution Cell Proliferation Assay (Promega, Madison, WI, USA), in accordance with the manufacturer’s instructions. The absorbance was measured at 492 nm on an automated microplate reader BioTek Synergy HT (BioTek Instruments, Inc., Winooski, VT, USA). Data are presented as the percentage of metabolic activity of control cells stimulated with vehicle or as IC50 value (mean ± SD) from two independent experiments, each conducted in duplicate or triplicate. IC50 values were calculated by a non-linear regression model using Graph Pad Prism 7 software.

[3] = tested on: S. agalactiae RDK 047 (QA-990/02); assay: MIC broth microdilution, S. agalactiae; format: cell-based; conditions: Streptococcus agalactiae; read-out: MIC S. agalactiae RDK 047 (QA-990/02)
Procedure: as §2

[4] = read-out: E. coli N43 MIC in molar
[5] = read-out: MIC E. coli N43 (CGSC# 5583)

Row | Compound | MIC (E. coli N43 (CGSC# 5583); [4]) | MIC (E. coli N43 (CGSC# 5583); [5]) | IC50 (E. coli DNA gyrase) | LE DNA Gyrase E. coli (E. coli DNA gyrase) | MIC (MRSA (QA-11.2)) | Papp at 4 h (in vitro) | Papp at 4 h (in vitro; pH 7.4) | LE DNA Gyrase S. aureus (S. aureus DNA gyrase) | IC50 (S. aureus DNA gyrase) | solubility thermodynamic at 24 h [1] | MIC [2] | MIC (E. coli (QA-11.8)) | MIC (M. avium) | MIC (MRSA (QA-11.6)) | IC50 (HUVEC; 72 h) | MIC [3] | IC50 (HUVEC)
1 | COc1ccc2nccc(CCN3CCC(NCc4ccc(OC(F)F)c(O)c4)CC3)c2n1 [Compound 20, 2-(Difluoromethoxy)-5-((1-(2-(6-methoxy-1,5-naphthyridin-4-yl)ethyl)piperidin-4-ylamino)methyl)phenol] | 1.09 µM | 0.5 µg/mL | 4.41 ± 0.16 µM | 0.22 | 1 µg/mL (≈ 2.18 µM) | > 2.7 ×10⁻⁶ cm/s | 3 ×10⁻⁶ cm/s | 0.27 | 0.33 ± 0.02 µM | 103 µg/mL (≈ 225 µM) | 64 µg/mL (≈ 140 µM) | 4 µg/mL (≈ 8.72 µM) | 128 µg/mL (≈ 279 µM) | 1 µg/mL (≈ 2.18 µM) | 29.8 ± 1.13 µM | 2 µg/mL (≈ 4.36 µM) | –
2 | COc1ccc2nccc(CCN3CCC(NCc4ccc(C(F)(F)F)nc4)CC3)c2n1 [Compound 21, 1-(2-(6-Methoxy-1,5-naphthyridin-4-yl)ethyl)-N-((6-(trifluoromethyl)pyridin-3-yl)methyl)piperidin-4-amine] | 2.25 µM | 1 µg/mL | 6.91 ± 1.62 µM | 0.22 | 0.5 µg/mL (≈ 1.12 µM) | > 2.7 ×10⁻⁶ cm/s | 8.3 ×10⁻⁶ cm/s | 0.29 | 0.16 ± 0.02 µM | 209 µg/mL (≈ 469 µM) | 128 µg/mL (≈ 287 µM) | 8 µg/mL (≈ 18 µM) | 4 µg/mL (≈ 8.98 µM) | 0.5 µg/mL (≈ 1.12 µM) | – | 4 µg/mL (≈ 8.98 µM) | > 50 µM
3 | COc1ccc(CNC2CCN(CCc3ccnc4ccc(OC)nc34)CC2)cn1 [Compound 22, 1-(2-(6-Methoxy-1,5-naphthyridin-4-yl)ethyl)-N-((6-methoxypyridin-3-yl)methyl)piperidin-4-amine] | 2.38 µM | 1 µg/mL | 7.24 ± 0.34 µM | 0.23 | 2 µg/mL (≈ 4.91 µM) | > 2.7 ×10⁻⁶ cm/s | 8.2 ×10⁻⁶ cm/s | 0.30 | 0.34 ± 0.05 µM | 1460 µg/mL (≈ 3580 µM) | 64 µg/mL (≈ 157 µM) | 8 µg/mL (≈ 19.6 µM) | > 128 µg/mL | 2 µg/mL (≈ 4.91 µM) | – | 1 µg/mL (≈ 2.45 µM) | > 50 µM
